No end group written: not given here.
Experiments:
cell viability = test: CytoTox ONE cell viability assay; type: cell-based; details: 2.5 μM peptide
Experimental: Delivery of siRNAs was tested in 7 different cell lines we obtained from the American Type Culture Collection, ATCC, via LCG Promochem GmbH, Wesel, Germany (PC12, ATTC# CRL-1721; HCT116, ATCC# CCL-247; C33A, ATCC# HTB-31; H441, ATCC# HTB-174; NMuLi, ATCC# CRL-1638; HepG2, ATCC# HB-8065; HeLa S3, ATCC# CCL2.2) and in the cell line KB-BCL2-GFP, as described in co-pending U.S. Ser. No. 10/941,663. Target mRNA quantification was performed using the QuantiGene™ bDNA-kit from Panomics, Inc., Fremont, USA, according to the manufacturers instructions, and essentially as described below for H441 cells. Genes constitutively expressed in the various cell lines were chosen as targets and results normalized to GAPDH expression. siRNA concentration was 250 nM, the concentration of the peptide was chosen as given by the molar ratio peptide/siRNA shown in Table 1. Cytotoxicity of peptides was evaluated employing the CytoTox-ONE™ assay (Promega GmbH, Mannheim, Germany).
Potential cytotoxic effects as mediator of inhibition were ruled out by determining cell viability in the presence of 2.5 μM of ppTG20, AP-0, AP-1, AP-27, AP-30, AP32 and AP-34 using the CytoTox ONE™ assay (Promega GmbH, Mannheim, Germany).

[1] = tested on: E6AP mRNA in HCT116 cells; test: siRNA AD-8724 delivery into HCT116 cells, inhibition of E6AP mRNA expression by bDNA assay; type: cell-based, human
Experimental: All further experiments were carried out using HCT116 cells and inhibition of E6AP expression as readout.
HCT116-cells were obtained from the American Type Culture Collection (ATCC# CCL-247). They were cultured in McCoy's 5A medium (Biochrom AG, Berlin, Germany, Cat.# F1015) containing 10% fetal calf serum (FCS; Biochrom AG, Berlin, Germany, Cat.# S0115) and 2 mM L-Glutamin (Biochrom AG, Berlin, Germany, Cat.#: K0283) (standard growth medium). For incubation with peptide/siRNA, complexes, the medium was replaced by serum-free McCoy's 5A medium containing 2 mM L-Glutamin (serum free medium). After incubation with complexes for 4 h, McCoy's 5A medium containing 30% fetal calf serum and 2 mM L-Glutamin (triple FCS medium) was added to restore an overall 10% FCS in the medium.
The E6AP-specific siRNA denoted AD-8724 herein was used, having the following sequences: antisense strand: 5′-ucacauuccacguuaggugTsT-3′ (SEQ ID NO:51), sense strand 5′-caccuaacguggaaugugaTsT-3′; (SEQ ID NO:52; lower case letters: ribonucleotides; s: phosphorothioate backbone linkage). As a negative control, an siRNA specific for eGFP, denoted AD-5107 herein, was used, having the following sequences: antisense strand: 5′-aagucgugcugcuucauguggOMesuOMesc-3′ (SEQ ID NO:19), sense strand 5′-[…]-3′ (SEQ ID NO:18; lower case letters: ribonucleotides; subscript OMe: 2′-O-methyl-ribonucleotide; s: phosphorothioate backbone linkage). In addition to the non-specific control siRNA AD-5107, mock transfected cells treated with standard growth medium only were used as negative controls. As a positive control, AD-8724 was transfected into the cells using Lipofectamine2000™ (Invitrogen, Karlsruhe, Germany, Cat. No. 11668-019). As a further control, AD-5107 was transfected into cells using Lipofectamine2000™. All assays were performed in quadruplicates.
SiRNA/peptide complexes were prepared by mixing a solution of the siRNA in deionized water with a solution of the peptide in deionized water at the appropriate concentrations to give the desired ratio of siRNA/peptide at the desired concentration of the complex. The mixture was incubated at room temperature for 30 min and kept at 4° C. until use, and used within 24 h.
For transfections with siRNA/peptide complexes, 1.5×10^5 HCT116-cells per well in 150 μl standard growth medium were seeded into polystyrene 96 well plates and grown for 24 h at 37° C. in an atmosphere containing 5% CO2. The medium was removed by aspiration, and 90 μl serum-free medium and 10 μl of siRNA/peptide complex solution were added. Cells were incubated for 4 h at 37° C./5% CO2, 50 μl triple FCS medium were added, and the cells incubated for another 20 h under identical conditions. Subsequently, E6AP mRNA content was determined as described below.
For Lipofectamine2000™ transfections, 0.5 μl Lipofectamine2000™ were mixed with 12 μl OptiMem™ (Invitrogen, Karlsruhe, Germany, Cat. No. 11058-021) and incubated for 15 min. 1 μl of a 5 μM solution of the respective siRNA in PBS (Biochrom AG, Berlin, Germany, Cat-No: L182-05) were added to 11.5 μl OptiMeM™, mixed with the Lipofectamine2000™/OptiMem™ solution, and incubated for further 15 min. 1.5×10^5 HCT116-cells per well in 150 μl standard growth medium were grown for 24 h as described above, the growth medium removed from the cells by aspiration, and 75 μl fresh standard growth medium and the 25 μl of the siRNA/Lipofectamine2000™ mix were added to the well, to give a final siRNA concentration of 50 nM. The cells were incubated for 24 h at 37° C./5% CO2 and E6AP mRNA concentration determined.
The QuantiGene™ bDNA-kit from Panomics, Inc., Fremont, USA, was used according to manufacturer's instructions. Briefly, cells were lysed by adding 50 μl of Lysis Mixture (from QuantiGene bDNA-kit) to each well and incubation at 53° C. for 1 h. […]

eGFP-mRNA = test: Influence of peptide/siRNA ratio on siRNA activity in HCT116 cells; type: cell-based; details: 250 nM siRNA
Experimental: The optimal ratio of (peptide):(anionic substance) for complex formation, was determined in section 3 above to lie in the range of 8:1 to 13:1 by titrating a fixed concentration of the anionic substance with increasing amounts of the peptide, and monitoring complex formation by electrophoresis of the mixture. To further validate and possibly narrow down the optimum ratio of peptide/anionic substance, an assay with a functional readout was performed. HCT116 cells were incubated with siRNA complexes as described above at concentrations such that the amount of siRNA in the incubation mixture corresponds to a 250 nM concentration of the siRNA, and the peptide/siRNA ratio was 8:1, 10:1, 12:1, or 14:1.

[2] = siRNA AD-8724 250 nM, molar peptide/siRNA ratio 12.5:1
[3] = AD-8724, siRNA/peptide conc. 25 nM/250 nM
[4] = AD-8724, siRNA/peptide conc. 250 nM/2.5 μM
[5] = AD-8724, siRNA/peptide conc. 1 μM/10 μM

Row | Sequence | cell viability (cell viability) | remaining E6AP mRNA (in % of mock) [1, 2] | Remaining eGFP-mRNA in % of mock-transfected controls (eGFP-mRNA; peptide/siRNA ratio 8:1) | Remaining eGFP-mRNA in % of mock-transfected controls (eGFP-mRNA; peptide/siRNA ratio 10:1) | Remaining eGFP-mRNA in % of mock-transfected controls (eGFP-mRNA; peptide/siRNA ratio 12:1) | Remaining eGFP-mRNA in % of mock-transfected controls (eGFP-mRNA; peptide/siRNA ratio 14:1) | further results
1 | HHHHHRLFRALLRLLRSLWRLLLRA [AP-30] | None of these peptides led to a significant alteration of cell viability |  |  |  |  |  | 
2 | HHHHHRLFRALLRLLRSLWRLLLRAHHHHH [AP-32] | None of these peptides led to a significant alteration of cell viability |  |  |  |  |  | 
3 | HLFRALHRLLRHLWRLLHRA [AP-12] |  | 94 ± 31% |  |  |  |  | 
4 | HLFRALLRLLRHLWRLLHRA [AP-11] |  | 62 ± 15% | 27 ± 5% | 30 ± 8% | 30 ± 5% | 24 ± 5% | 
5 | HLFRALLRLLRHLWRLLLRAHHHHH [AP-29] |  |  |  |  |  |  | remaining E6AP mRNA (in % of mock) [1, 3]: 58 ± 8%; remaining E6AP mRNA (in % of mock) [1, 4]: 16 ± 2%; remaining E6AP mRNA (in % of mock) [1, 5]: 11 ± 1%
6 | HLFRALLRLLRSLWRLLHRA [AP-9] |  | 53 ± 17% | 38 ± 6% | 31 ± 3% | 22 ± 1% | 36 ± 7% | 
7 | HLFRALRRLLRHLWRLLRRA [AP-13] |  | 59 ± 7% |  |  |  |  | 
8 | HLFRHLLRLLRHLWRHLLRA [AP-15] |  | 77 ± 39% | 32 ± 5% | 26 + 2% | 22 ± 4% | 43 ± 5% | 
9 | HLFRHLLRLLRRLWHLLHRA [AP-14] |  | 56 ± 21% | 41 ± 2% | 41 ± 12% | 19 ± 2% | 39 ± 7% | 
10 | RLFPALLRLLRRLWRLLLRA [AP-6] |  | 41 ± 11% | 62 ± 9% | 36 ± 8% | 63 ± 18% | 54 ± 9% | 
11 | RLFRALLRLLRRLWRLLRRA [AP-7] |  | 134 ± 19% |  |  |  |  | 
12 | RLFRALLRLLRSLWRLLLRA [AP-1] | None of these peptides led to a significant alteration of cell viability |  |  |  |  |  | 
13 | RLFRALLRLLRSLWRLLLRAHHHHH [AP-27] | None of these peptides led to a significant alteration of cell viability |  |  |  |  |  | 
14 | RLFRALLRLLRSLWRLLLRAHHHHHHHHHH [AP-34] | None of these peptides led to a significant alteration of cell viability |  |  |  |  |  | 
15 | RLFRALLRLLRSLWRLLRRAHHHHH [AP-28] |  |  |  |  |  |  | remaining E6AP mRNA (in % of mock) [1, 3]: 105 ± 13%; remaining E6AP mRNA (in % of mock) [1, 4]: 30 ± 9%; remaining E6AP mRNA (in % of mock) [1, 5]: 18 ± 2%
16 | RLFRALRRLLRRLWRLLRRA [AP-8] |  | 170 ± 44% |  |  |  |  | 
